Counter-ions that a name gives are not always drawn.
Assays:
Type in all cases: cell-based
[1] = target: T1, α-1A adrenoceptor (rat vas deferens) (Rattus norvegicus, UniProt P43140); experiment: Functional antagonism: phenylephrine (PE)-induced contraction of rat vas deferens; conditions: vs phenylephrine, Schild plot; for Kb: read-out: pA2 Rat Vas Deferens [α-1A] (converted)
T1 construct: PE-induced contraction of rat vas deferens; from tissue; host or cells: rat vas deferens
T1 sequence (P43140 1-466): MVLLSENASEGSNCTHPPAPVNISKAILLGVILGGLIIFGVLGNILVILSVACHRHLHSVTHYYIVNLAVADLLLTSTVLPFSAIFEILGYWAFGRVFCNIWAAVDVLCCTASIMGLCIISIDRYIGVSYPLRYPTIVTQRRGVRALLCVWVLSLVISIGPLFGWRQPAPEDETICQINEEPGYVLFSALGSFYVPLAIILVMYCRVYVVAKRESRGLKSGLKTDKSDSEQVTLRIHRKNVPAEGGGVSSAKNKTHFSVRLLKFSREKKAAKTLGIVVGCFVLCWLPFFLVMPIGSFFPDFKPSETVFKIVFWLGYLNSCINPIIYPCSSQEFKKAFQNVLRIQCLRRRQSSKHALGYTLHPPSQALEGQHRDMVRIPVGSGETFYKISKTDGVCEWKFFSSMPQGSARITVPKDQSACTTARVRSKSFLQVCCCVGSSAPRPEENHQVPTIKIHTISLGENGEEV
From the text: (§1) Functional assays indicative of pharmacologically defined α-1 adrenoceptors were used to further characterize compounds. Inhibition of phenylephrine (PE)-induced contraction of canine prostate smooth muscle can be correlated with α-1A adrenoceptor activation. […] For each of these models, agonist dose response curves were repeated against increasing concentrations of test agent to derive a Schild plot [log ([…]) against log (molarity of test agent)] to determine the pA2.

[2] = target: T2, α-1B adrenoceptor (rat spleen) (Rattus norvegicus, UniProt P15823); experiment: Functional antagonism: phenylephrine (PE)-induced contraction of rat spleen; conditions: for Kb: read-out: pA2 Rat Spleen [α-1B] (converted)
T2 construct: PE-induced contraction of rat spleen; from tissue; host or cells: rat spleen
T2 sequence (P15823 1-515): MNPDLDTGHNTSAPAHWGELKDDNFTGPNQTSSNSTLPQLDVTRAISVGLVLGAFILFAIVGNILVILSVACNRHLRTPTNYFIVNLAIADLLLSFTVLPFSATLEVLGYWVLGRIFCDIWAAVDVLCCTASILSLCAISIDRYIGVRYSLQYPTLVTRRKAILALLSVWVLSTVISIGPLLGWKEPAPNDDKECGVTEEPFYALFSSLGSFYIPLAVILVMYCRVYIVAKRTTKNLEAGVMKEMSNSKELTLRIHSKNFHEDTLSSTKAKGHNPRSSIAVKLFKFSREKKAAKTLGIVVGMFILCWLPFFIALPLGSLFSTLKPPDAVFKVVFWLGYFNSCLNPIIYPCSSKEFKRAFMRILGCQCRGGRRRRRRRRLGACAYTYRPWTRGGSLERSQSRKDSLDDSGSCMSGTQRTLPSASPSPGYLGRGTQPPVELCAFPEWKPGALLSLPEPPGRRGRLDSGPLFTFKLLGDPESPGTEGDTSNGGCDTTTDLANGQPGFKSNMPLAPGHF
From the text: as §1

[3] = target: T3, α-1A adrenoceptor (dog prostate) (Canis lupus, UniProt A0A8I3NK63); experiment: Functional antagonism: phenylephrine (PE)-induced contraction of canine prostate strips; conditions: vs phenylephrine, Schild plot
T3 sequence (A0A8I3NK63 1-466): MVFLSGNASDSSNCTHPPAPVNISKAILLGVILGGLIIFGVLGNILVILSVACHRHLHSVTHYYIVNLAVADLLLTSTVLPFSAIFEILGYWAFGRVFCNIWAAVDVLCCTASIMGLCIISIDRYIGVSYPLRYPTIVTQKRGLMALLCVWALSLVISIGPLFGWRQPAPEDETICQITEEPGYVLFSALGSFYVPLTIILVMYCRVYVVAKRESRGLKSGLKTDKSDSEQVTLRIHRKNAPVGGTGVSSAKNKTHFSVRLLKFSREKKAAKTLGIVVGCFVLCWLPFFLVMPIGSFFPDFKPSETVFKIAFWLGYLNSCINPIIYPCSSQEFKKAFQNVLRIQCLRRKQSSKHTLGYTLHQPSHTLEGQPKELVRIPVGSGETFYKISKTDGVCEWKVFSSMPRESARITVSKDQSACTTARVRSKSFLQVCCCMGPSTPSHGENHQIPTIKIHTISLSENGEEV
From the text: as §1
Canine prostate strips were used in vitro as previously described (Hieble, J. P., Boyce, A. J. and Caine, M., Fed. Proc., 45:2609-2614 (1986)), to determine antagonist potencies against phenylephrine-induced contractions.

SMILES | Kb [1] [nM] | Kb ([2]; vs phenylephrine, Schild plot) [nM] | pA2 Dog Prostate [α-1A] ([3]; Table 2a) | pA2 Dog Prostate [α-1A] ([3]; Table 2b) | further results
COc1cccc2c1[C@@H]1CN(CCn3c(=O)[nH]c4c(sc5ccccc54)c3=O)C[C@@H]1CC2 (relative stereo) [Example 5, 3-[2-(cis-9-Methoxy-2,3,3a,4,5,9b-hexahydro-[1H]-benz[e]isoindol-1-yl)ethyl]-[1]benzothieno[3,2-d]pyrimidine-2,4(1H,3H)-dione hydrochloride] | 13.8 | 148 | 7.79 | – | –
COc1cccc2c1CC[C@@H]1CN(CCn3c(=O)[nH]c4c(sc5ccccc54)c3=O)C[C@@H]21 (relative stereo) [Example 10, 3-[2-(trans-6-Methoxy-2,3,3a,4,5,9b-hexahydro-[[1H]-benz[e]isoindol-1-yl)ethyl]-[1]benzothieno[3,2-d]pyrimidine-2,4(1H,3H)-dione hydrochloride] | 3.09 | 30.2 | 8.37 | – | –
COc1cccc2c1CC[C@H]1CN(CCn3c(=O)[nH]c4c([nH]c5ccccc54)c3=O)C[C@@H]21 (relative stereo) [Example 14, hydrochloride] | 2.69 | 23.4 | 8.23 | – | –
COc1cccc2c1CC[C@@H]1CN(CCn3c(=O)[nH]c4c([nH]c5ccccc54)c3=O)C[C@@H]21 (relative stereo) [Example 17, 3-[2-(trans-6-Methoxy-2,3,3a,4,5,9b-hexahydro-[[1H]-benz[e]isoindol-1-yl)ethyl]-1H-pyrimido[5,4-b]indole-2,4(3H,5H)-dione hydrochloride] | 10.7 | 63.1 | 8.29 | – | –
COc1cccc2c1CC[C@H]1CN(CCn3c(=O)[nH]c4c(sc5ncccc54)c3=O)C[C@@H]21 (relative stereo) [Example 23, hydrochloride] | 5.13 | 151 | 8.97 | – | –
COc1cccc2c1CC[C@H]1CN(CCn3c(=O)[nH]c4c(ccc5ccccc54)c3=O)C[C@@H]21 (relative stereo) [Example 25, hydrochloride] | 2.19 | 174 | 8.27 | – | –
O=c1[nH]c2c(sc3cccnc32)c(=O)n1CCN1C[C@@H]2CCc3c(ccc4c3OCO4)[C@@H]2C1 (relative stereo) [Example 112, dihydrochloride] | – | – | 8.18 | – | pA2 Rat Vas Deferens [α-1A] [1]: 7.92; pA2 Rat Spleen [α-1B] ([2]; vs phenylephrine, Schild plot): 7.2
COc1cccc2c1CC[C@@H]1CN(CCn3c(=O)[nH]c4c(sc5ccccc54)c3=O)C[C@H]21 [Example 8, 3-[2-((3aS,9bS)-cis-6-Methoxy-2,3,3a,4,5,9b-hexahydro-[1H]-benz[e]isoindol-1-yl)ethyl][1]benzothieno[3,2]pyrimidine-2,4(1H,3H)-dione hydrochloride] | 17.4 | 55 | 7.63 | – | –
COc1cccc2c1CC[C@H]1CN(CCn3c(=O)[nH]c4c(sc5nc(-c6ccccc6)cnc54)c3=O)C[C@@H]21 [Example 91, hydrochloride] | – | – | – | 6.66 | –
COc1cccc2c1CC[C@H]1CN(CCn3c(=O)c4sc5nccnc5c4n(Cc4ccccc4)c3=O)C[C@@H]21 [Example 96, hydrochloride] | – | – | – | 7.46 | –
CCn1c(=O)n(CCN2C[C@@H]3CCc4c(OC)cccc4[C@@H]3C2)c(=O)c2sc3nccnc3c21 [Example 98, hydrochloride] | – | – | – | 9.39 | –
COc1cccc2c1CC[C@H]1CN(CCn3c(=O)[nH]c4c(sc5nc(C)c(C)nc54)c3=O)C[C@@H]21 [Example 103, hydrochloride] | – | – | – | 9.43 | –
COCCn1c(=O)n(CCN2C[C@@H]3CCc4c(OC)cccc4[C@@H]3C2)c(=O)c2sc3nccnc3c21 [Example 104, 3-[2-(cis-(3aR,9bR)-6-Methoxy-2,3,3a,4,5,9b-hexahydro-[1H]-benz[e]isoindol-1-yl)ethyl]-1-(2-methoxyethyl)pyrazino[2',3':4,5]thieno[3,2-d]pyrimidine-2,4(1H,3H)-dione hydrochloride] | – | – | – | 9.74 | –
COCCn1c(=O)n(CCN2C[C@@H]3CCc4c(OC)cccc4[C@@H]3C2)c(=O)c2sc3cccnc3c21 [Example 105, hydrochloride] | – | – | – | 8.58 | –
CCOc1cccc2c1CC[C@H]1CN(CCn3c(=O)[nH]c4c(sc5ncccc54)c3=O)C[C@@H]21 [Example 109, hydrochloride] | – | – | – | 8.00 | –
COc1cc2nc(N3CCN(C(=O)C4COc5ccccc5O4)CC3)nc(N)c2cc1OC (stereo not drawn) [doxazosin, reference compound] | – | – | – | – | more potent effect on spleen smooth muscle ([2]; PE-induced contraction, pA2 models compared): more potent effect on spleen smooth muscle by approximately an order of magnitude

More lines, main results first:

Kb [1] [nM] | Kb ([2]; vs phenylephrine, Schild plot) [nM] | pA2 Dog Prostate [α-1A] ([3]; Table 2a) | pA2 Dog Prostate [α-1A] ([3]; Table 2b) | SMILES | further results
4.27 | 21.4 | 8.74 | – | COc1cccc2c1CC[C@H]1CN(CCn3c(=O)[nH]c4c(sc5ccccc54)c3=O)C[C@@H]21 (relative stereo) [Example 1, hydrochloride] | –
2.82 | 51.3 | 8.57 | – | COc1cccc2c1CC[C@H]1CN(CCn3c(=O)c4sc5ccccc5c4n(C)c3=O)C[C@@H]21 (relative stereo) [Example 11, hydrochloride] | –
13.8 | 13.5 | 8.37 | – | COc1cccc2c1CC[C@@H]1CN(CCn3c(=O)[nH]c4c(oc5ccccc54)c3=O)C[C@@H]21 (relative stereo) [Example 18, 3-[2-(trans-6-Methoxy-2,3,3a,4,5,9b-hexahydro-[[1H]-benz[e]isoindol-1-yl)ethyl]-benzofuro[3,2-d]pyrimidine-2,4(1H,3H)-dione hydrochloride] | –
– | – | – | 9.1 | COc1cccc2c1CC[C@H]1CN(CCn3c(=O)[nH]c4c(sc5nc(C)cnc54)c3=O)C[C@@H]21 [Example 92, hydrochloride] | –
– | – | – | 9.07 | COc1cccc2c1CC[C@H]1CN(CCn3c(=O)c4sc5nccnc5c4n(C)c3=O)C[C@@H]21 [Example 95, hydrochloride] | –
– | – | – | 9.66 | COc1cccc2c1CC[C@H]1CN(CCn3c(=O)[nH]c4c([nH]c5ccncc54)c3=O)C[C@@H]21 [Example 97, hydrochloride] | –
– | – | – | 7.92 | COc1cccc2c1CC[C@H]1CN(CCn3c(=O)[nH]c4c(sc5ncc(-c6ccccc6)nc54)c3=O)C[C@@H]21 [Example 99, hydrochloride] | –
– | – | – | 6.92 | COc1cccc2c1CC[C@H]1CN(CCn3c(=O)[nH]c4c(sc5nc(-c6ccccc6)c(-c6ccccc6)nc54)c3=O)C[C@@H]21 [Example 100, 3-[2-(cis-(3aR,9bR)-6-Methoxy-2,3,3a,4,5,9b-hexahydro-[1H]-benz[e]isoindol-1-yl)ethyl]-7,8-diphenylpyrazino[2',3':4,5]thieno[3,2-d]pyrimidine-2,4(1H,3H)-dione hydrochloride] | –
– | – | – | 7.31 | CCCCn1c(=O)n(CCN2C[C@@H]3CCc4c(OC)cccc4[C@@H]3C2)c(=O)c2sc3nccnc3c21 [Example 101, hydrochloride] | –
– | – | – | 8.22 | CCc1cccc2c1CC[C@H]1CN(CCn3c(=O)[nH]c4c(sc5cccnc54)c3=O)C[C@@H]21 [Example 113, dihydrochloride] | –

From patent US5597823A, “Tricyclic substituted hexahydrobenz [e]isoindole alpha-1 adrenergic antagonists” (priority 1995, dated 1997)
